This note sets out measurements from patent US11130756B2, “[1,2,4]Triazolo[4,3-A]pyridinyl substituted indole compounds” (BRISTOL-MYERS SQUIBB COMPANY, priority 2017, dated 2021).

Common to all, as to assay type: cell-based
One test concerns the target T1, human TLR8 (Homo sapiens, UniProt Q9NR97).
T1 construct: host or cells: HEK-Blue cells
T1 sequence (Q9NR97 27-1041): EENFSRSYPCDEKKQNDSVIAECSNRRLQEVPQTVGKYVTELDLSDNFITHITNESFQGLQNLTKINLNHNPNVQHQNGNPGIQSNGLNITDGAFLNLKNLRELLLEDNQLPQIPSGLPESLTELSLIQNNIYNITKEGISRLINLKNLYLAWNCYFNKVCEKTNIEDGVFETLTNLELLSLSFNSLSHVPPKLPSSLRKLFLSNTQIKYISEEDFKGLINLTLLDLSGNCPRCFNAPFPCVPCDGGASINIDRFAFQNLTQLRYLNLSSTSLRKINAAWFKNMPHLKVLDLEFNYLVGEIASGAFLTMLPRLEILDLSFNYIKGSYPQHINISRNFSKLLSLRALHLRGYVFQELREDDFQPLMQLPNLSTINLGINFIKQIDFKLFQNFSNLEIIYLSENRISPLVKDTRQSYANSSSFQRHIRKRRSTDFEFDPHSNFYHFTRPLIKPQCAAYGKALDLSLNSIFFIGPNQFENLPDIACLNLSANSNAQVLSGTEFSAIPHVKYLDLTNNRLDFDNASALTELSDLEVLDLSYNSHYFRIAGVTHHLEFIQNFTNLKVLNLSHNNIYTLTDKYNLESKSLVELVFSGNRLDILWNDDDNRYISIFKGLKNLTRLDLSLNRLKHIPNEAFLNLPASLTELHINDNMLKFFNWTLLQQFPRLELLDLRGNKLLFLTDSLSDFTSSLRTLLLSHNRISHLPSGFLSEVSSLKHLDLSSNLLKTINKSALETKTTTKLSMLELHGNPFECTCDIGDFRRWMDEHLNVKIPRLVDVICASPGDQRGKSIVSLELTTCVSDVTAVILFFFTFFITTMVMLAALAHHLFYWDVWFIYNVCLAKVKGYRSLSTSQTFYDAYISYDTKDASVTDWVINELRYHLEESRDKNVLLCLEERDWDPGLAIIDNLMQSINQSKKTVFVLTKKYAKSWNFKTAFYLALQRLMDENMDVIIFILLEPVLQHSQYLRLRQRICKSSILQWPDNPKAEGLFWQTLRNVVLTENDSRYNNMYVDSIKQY
As to the kind of experiment: TLR8 inhibition reporter assay (HEK-Blue, SEAP). Particulars: HEK-Blue cells overexpressing human TLR8, R848 15.9 μM, 22 hour incubation. An outline of the steps:
(§1)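 Screening used HEK-Blue cells overexpressing one human TLR (7, 8 or 9) and an IFN-β minimal promoter–NF-κB/AP-1 SEAP construct. Stimulation lasted 22 h at 37 °C with receptor-specific agonist: gardiquimod, R848 or ODN2006 at 7.5 μM, 15.9 μM and 5 nM.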
A general note: In a reporter assay the amount or activity of a reporter protein is the signal.

A further test has as its target T2, human TLR7 (Homo sapiens, UniProt Q9NYK1).
T2 construct: host or cells: HEK-Blue cells
T2 sequence (Q9NYK1 27-1049): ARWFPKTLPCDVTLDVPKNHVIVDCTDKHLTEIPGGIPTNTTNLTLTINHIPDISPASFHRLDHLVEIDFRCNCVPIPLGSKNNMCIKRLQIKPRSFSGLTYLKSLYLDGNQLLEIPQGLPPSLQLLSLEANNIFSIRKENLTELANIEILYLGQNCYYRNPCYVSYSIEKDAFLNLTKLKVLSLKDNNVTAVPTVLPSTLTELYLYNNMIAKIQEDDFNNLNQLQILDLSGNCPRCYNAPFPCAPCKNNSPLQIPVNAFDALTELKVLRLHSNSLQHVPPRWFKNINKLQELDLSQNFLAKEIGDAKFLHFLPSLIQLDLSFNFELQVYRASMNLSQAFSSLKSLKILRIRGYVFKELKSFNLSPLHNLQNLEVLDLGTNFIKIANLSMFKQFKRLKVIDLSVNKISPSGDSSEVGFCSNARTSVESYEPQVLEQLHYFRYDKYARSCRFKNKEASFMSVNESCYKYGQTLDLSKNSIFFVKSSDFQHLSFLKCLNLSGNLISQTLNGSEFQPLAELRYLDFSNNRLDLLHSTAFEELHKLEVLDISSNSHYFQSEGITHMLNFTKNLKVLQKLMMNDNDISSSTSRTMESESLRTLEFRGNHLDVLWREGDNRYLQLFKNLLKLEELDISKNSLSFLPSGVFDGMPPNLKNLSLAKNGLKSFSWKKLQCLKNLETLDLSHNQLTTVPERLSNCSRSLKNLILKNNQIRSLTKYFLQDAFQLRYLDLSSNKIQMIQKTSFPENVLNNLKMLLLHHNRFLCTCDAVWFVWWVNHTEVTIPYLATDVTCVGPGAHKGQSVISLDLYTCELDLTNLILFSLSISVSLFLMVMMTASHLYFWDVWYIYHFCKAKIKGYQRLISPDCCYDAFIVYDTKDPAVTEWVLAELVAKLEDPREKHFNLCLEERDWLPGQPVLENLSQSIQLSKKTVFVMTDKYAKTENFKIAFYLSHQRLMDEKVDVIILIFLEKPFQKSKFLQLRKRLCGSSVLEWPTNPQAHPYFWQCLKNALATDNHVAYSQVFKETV
Kind of test: TLR7 inhibition reporter assay (HEK-Blue, SEAP). The settings on record: HEK-Blue cells overexpressing human TLR7, gardiquimod 7.5 μM, 22 hour incubation. An outline of the steps:
as §1

A further test has as its target T3, human TLR9 (Homo sapiens, UniProt Q9NR96).
T3 construct: host or cells: HEK-Blue cells
T3 sequence (Q9NR96 26-1032): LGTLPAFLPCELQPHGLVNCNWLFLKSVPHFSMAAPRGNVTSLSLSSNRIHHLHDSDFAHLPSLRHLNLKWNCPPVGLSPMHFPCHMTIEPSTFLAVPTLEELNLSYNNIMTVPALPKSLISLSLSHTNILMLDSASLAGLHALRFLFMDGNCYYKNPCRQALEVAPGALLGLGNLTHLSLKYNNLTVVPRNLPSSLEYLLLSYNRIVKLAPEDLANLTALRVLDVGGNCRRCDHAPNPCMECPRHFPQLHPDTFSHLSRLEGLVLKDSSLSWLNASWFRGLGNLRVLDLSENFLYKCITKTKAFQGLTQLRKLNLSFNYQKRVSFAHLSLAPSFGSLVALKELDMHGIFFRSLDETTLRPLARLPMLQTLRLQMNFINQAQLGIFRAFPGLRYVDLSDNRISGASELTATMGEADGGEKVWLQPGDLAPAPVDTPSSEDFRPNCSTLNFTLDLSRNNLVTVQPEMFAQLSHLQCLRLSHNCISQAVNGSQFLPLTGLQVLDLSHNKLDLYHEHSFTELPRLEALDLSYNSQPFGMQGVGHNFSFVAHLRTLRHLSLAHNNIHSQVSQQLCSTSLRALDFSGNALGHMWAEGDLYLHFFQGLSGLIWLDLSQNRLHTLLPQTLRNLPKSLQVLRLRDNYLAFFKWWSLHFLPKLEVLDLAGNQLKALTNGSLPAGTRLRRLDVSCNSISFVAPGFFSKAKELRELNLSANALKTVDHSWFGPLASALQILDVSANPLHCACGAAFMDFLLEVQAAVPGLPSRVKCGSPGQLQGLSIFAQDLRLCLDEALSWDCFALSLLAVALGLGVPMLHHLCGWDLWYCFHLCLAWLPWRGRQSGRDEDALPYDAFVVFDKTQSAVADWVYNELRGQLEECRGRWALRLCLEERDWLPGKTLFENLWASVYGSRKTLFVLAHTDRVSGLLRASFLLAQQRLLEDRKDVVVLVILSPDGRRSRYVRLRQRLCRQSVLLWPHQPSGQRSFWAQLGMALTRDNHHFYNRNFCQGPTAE
As to the kind of experiment: TLR9 inhibition reporter assay (HEK-Blue, SEAP). Particulars: HEK-Blue cells overexpressing human TLR9, ODN2006 5 nM, 22 hour incubation. An outline of the steps: as §1

pIC50: −log10 of the molar value.

As to `Cc1cc2nncn2cc1-c1[nH]c2ccc(C3CCN(Cc4ncn(C)n4)CC3)cc2c1C(C)C` [Example 20, 6-(3-isopropyl-5-(1-((1-methyl-1H-1,2,4-triazol-3-yl)methyl)piperidin-4-yl)-1H-indol-2-yl)-7-methyl-[1,2,4] triazolo[4,3-a]pyridine], the pIC50 (usually the IC50 on a negative log10 scale, so that one unit is a factor of ten) against human TLR8 is 6.39; against human TLR7 it was 7.16; against human TLR9, 4.71.
On the same counts, the results for `Cc1cc(-c2[nH]c3ccc(C4CCN(Cc5ncn(C)n5)CC4)cc3c2C(C)C)cn2cnnc12` [Example 21, 6-(3-isopropyl-5-(1-((1-methyl-1H-1,2,4-triazol-3-yl)methyl)piperidin-4-yl)-1H-indol-2-yl)-8-methyl-[1,2,4]triazolo[4,3-a]pyridine] are 8.00, 8.41 and 5.33.
As to `Cc1nnc2ccc(-c3[nH]c4ccc(C5CCN(Cc6ncn(C)n6)CC5)cc4c3C(C)C)cn12` [Example 22, 6-(3-isopropyl-5-(1-((1-methyl-1H-1,2,4-triazol-3-yl)methyl)piperidin-4-yl)-1H-indol-2-yl)-3-methyl-[1,2,4]triazolo[4,3-a]pyridine], the pIC50 against human TLR8 was 7.75; on human TLR7 it was 6.87; against human TLR9, no more than 4.30.
Take `CC(C)c1c(-c2ccc3nncn3c2)[nH]c2ccc(C3CCN(Cc4ncn(C)n4)CC3)cc12` [Example 23, 6-(3-isopropyl-5-(1-((1-methyl-1H-1,2,4-triazol-3-yl)methyl)piperidin-4-yl)-1H-indol-2-yl)-[1,2,4]triazolo[4,3-a]pyridine]: the pIC50 against human TLR8 is 6.43; at human TLR7, 7.26; on human TLR9, no more than 4.30.
On the same counts, the results for `CNC(=O)CN1CCC(c2ccc3[nH]c(-c4ccc5nncn5c4C)c(C(C)C)c3c2)CC1` [Example 24, 2-(4-(3-isopropyl-2-(5-methyl-[1,2,4]triazolo[4,3-a]pyridin-6-yl)-1H-indol-5-yl)piperidin-1-yl)-N-methylacetamide] are 7.50, 7.39 and 5.05.
On the same counts, the results for `Cc1c(-c2[nH]c3ccc(C4CCN(CC(=O)N(C)C)CC4)cc3c2C(C)C)ccc2nncn12` [Example 25, 2-(4-(3-isopropyl-2-(5-methyl-[1,2,4]triazolo[4,3-a]pyridin-6-yl)-1H-indol-5-yl)piperidin-1-yl)-N,N-dimethylacetamide] are 7.55, 7.31 and 5.48.
Consider `Cc1c(-c2[nH]c3ccc(C4CCN(Cc5ncn(C)n5)CC4)cc3c2C(C)C)ccc2nncn12` [Example 26, 6-(3-isopropyl-5-(1-((1-methyl-1H-1,2,4-triazol-3-yl)methyl)piperidin-4-yl)-1H-indol-2-yl)-5-methyl-[1,2,4]triazolo[4,3-a]pyridine], for which the values for the pIC50 against human TLR8, at human TLR7 and on human TLR9 were 7.55, 6.93 and 4.91, respectively.
With `COCCN1CCC(c2ccc3[nH]c(-c4cc(C)c5nncn5c4)c(C(C)C)c3c2)CC1` [Example 27, 6-(3-isopropyl-5-(1-(2-methoxyethyl)piperidin-4-yl)-1H-indol-2-yl)-8-methyl-[1,2,4]triazolo[4,3-a]pyridine], the pIC50 was 8.47 at human TLR8, 9.05 at human TLR7 and 5.46 against human TLR9.
As to `Cc1cc(-c2[nH]c3ccc(C4CCN(CCO)CC4)cc3c2C(C)C)cn2cnnc12` [Example 28, 2-(4-(3-isopropyl-2-(8-methyl-[1,2,4]triazolo[4,3-a]pyridin-6-yl)-1H-indol-5-yl)piperidin-1-yl) ethan-1-ol], the pIC50 on human TLR8 was 8.47; at human TLR7, 9.40; at human TLR9 it was 6.34.
Take `Cc1cc(-c2[nH]c3ccc(C4CCN(CC5(C)COC5)CC4)cc3c2C(C)C)cn2cnnc12` [Example 29, 6-(3-isopropyl-5-(1-((3-methyloxetan-3-yl)methyl)piperidin-4-yl)-1H-indol-2-yl)-8-methyl-[1,2,4]triazolo[4,3-a]pyridine]: the values for the pIC50 against human TLR8, on human TLR7 and against human TLR9 were 8.96, 9.15 and 5.36, respectively.
Take `Cc1cc(-c2[nH]c3ccc(C4CCN(CC5COC5)CC4)cc3c2C(C)C)cn2cnnc12` [Example 30, 6-(3-isopropyl-5-(1-(oxetan-3-ylmethyl)piperidin-4-yl)-1H-indol-2-yl)-8-methyl-[1,2,4]triazolo[4,3-a]pyridine]: the values for the pIC50 against human TLR8, at human TLR7 and at human TLR9 were 8.89, 9.52 and 5.51, respectively.
Taken in the same sequence, the figures for `Cc1cc(-c2[nH]c3ccc(C4CCN(CC#N)CC4)cc3c2C(C)C)cn2c(C)nnc12` [Example 31, 2-(4-(2-(3,8-dimethyl-[1,2,4]triazolo[4,3-a]pyridin-6-yl)-3-isopropyl-1H-indol-5-yl)piperidin-1-yl)acetonitrile] were 7.89, 8.42 and 6.14.
